In one series the test system is Phytophthora infestans. Briefly: whole plant or invertebrate. It is filed as in vivo. Particulars: 24 h, read-out: PHYTIN percent control.
The test system of a further series is Plasmopara viticola. The experiment in a line: whole plant or invertebrate. The format is in vivo. The following applies: 24 h, read-out: PLASVI percent control.
The subject of another series is Septoria tritici. Briefly: Leaf Blotch of Wheat, 1-day protectant whole plant test. The format is in vivo. The following applies: Zymoseptoria tritici, 24 h, read-out: SEPTTR percent control.

We go through 2 compounds from patent US6815556B2, “Compounds having fungicidal activity and processes to make and use same” (Dow AgroSciences LLC, priority 2000, dated 2004).

Like-named read-outs stand apart in the source and are kept apart here.

In the case of `CC(C)OC(=O)N[C@H](CS(=O)(=O)C(C)c1ccc(Br)cc1)C(C)C` (some centres unmarked) [Compound 1], the melting point was in the range of 60 to 70 °C. Moreover, the pest or weed control at 100 ppm in the series on Phytophthora infestans was in the range of 90 to 100%. In the series on Plasmopara viticola, the pest or weed control at 100 ppm fell in the range of 90 to 100%. Besides, in the series on Septoria tritici (100 ppm spray, wheat plants (variety Monon), one-day protectant test, vs untreated inoculated plants), the pest or weed control at 100 ppm was under 20%.
Compound `CC(C)[C@@H](CS(=O)(=O)C(C)c1ccc(Br)cc1)NC(=O)Oc1ccccc1` (some centres unmarked) [Compound 17] had a melting point of 55 to 65 °C. In the series on Phytophthora infestans, the pest or weed control at 100 ppm was 90 to 100%. For the same compound, the pest or weed control at 100 ppm in the series on Plasmopara viticola was 90 to 100%. Further, in the series with Septoria tritici, the pest or weed control at 100 ppm is 20 to 49%.
